The values below come from patent US20020151481A1, “MMP-2 propeptide for use as antiangiogenic or antitumor agent” (priority 2000, published 2002).

Molecules are shown by their SMILES.

This data set can be described thus: Viability of cultured chondrosarcoma cells (crystal violet nuclear staining, OD590). Type of data set: cell-based. As to conditions: human, human chondrosarcoma cell line; crystal violet OD590 (FIG. 5); concentration not given; read-out: decrease in viable cell number. Here is the method:
Animal Cell Experiments. The effects of the MMP-2 propeptide on viability and metabolism of cultured animal cells was observed. A human chondrosarcoma cell line was cultured in both the presence and absence of 50 μg/ml recombinant MMP-2 propeptide (serum-free). Cultures were observed over a 48 hours period. Cell viability was monitored via crystal violet nuclear staining and absorption spectroscopy (OD590). Absorbance is proportional to cell number (Gillies, 1986, Anal. Biochem. 159:109-113). […] That MMP-2 had no effect on the cultured cancer cell line was not unexpected since the effects of angiogenesis inhibitors (such as angiostatin and endostatin) are believed to be restricted to […] endothelial cells.

For `COc1cc2c(cc1O)CCN[C@]21CS[C@@H]2c3c(OC(C)=O)c(C)c4c(c3[C@H](COC1=O)N1[C@@H]2[C@H]2c3c(cc(C)c(OC)c3O)C[C@@H]([C@@H]1O)N2C)OCO4` [ET-743], the cytotoxicity at 48 h amounted to 50%.
